How the values were obtained:
IKZF1 = target: T1, IKZF1 (Homo sapiens, UniProt Q13422+Q96SW2); assay: HEK293 HiBiT in vitro degradation of IKZF1; format: cell-based; settings: for DC50 / IKZF1 Dmax: HEK293 HiBiT; for DC50: 18-24 hr incubation, normalized to DMSO control, read-out: IKZF1 EC50; for IKZF1 Dmax / Dmax: maximum degradation at the highest concentration tested; for Dmax: HEK293, HEK293 HiBiT
T1 construct: expressed in transfected cells
Description: (§1) In vitro degradation of IKZF1, IKZF2, and SALL4 was measured using HiBiT protein tagging and detection technology (Promega).
(§2) HiBit technology was used to develop the quantitative assays to measure the cellular IKZFs level by tagging an 11 amino acid HiBit peptides […] to the protein of interest. Reporter plasmids were generated by fusing a linker sequence ([…]) followed by the HiBit tag at the C-terminus of IKZF1, IKZF2, and SALL4. The fusion fragments were subsequently cloned into pcDNA5 pcDNA™5/FRT/TO plasmids (Thermo Fisher, cat #V652020) downstream of the tetracycline operator. The resulting plasmids were co-transfected with pOG44 Flp-Recombinase Expression Vector (Thermo Fisher, cat #V600520) into Flp-In™ T-REx HEK293 line (Thermo Fisher, cat #R78077) and a stable cell pool was selected by adding 100 µg/ml of Hygromycin (Thermo Fisher, cat #10687010). The reporter cell enabled Tet-On inducible reporter expression from a single copy of the integrated gene.
(§3) On Day 1, Cells were grown to ˜80% confluency in tissue culture medium (DMEM Glutamax (Gibco10569), 10% Tet free FBS (Takara 631106), and PenStrep Glutamin (Gibco 10378)) in tissue culture flasks. Doxycycline was then added to a final concentration of […] to induce reporter expression at 37° C. overnight.
(§4) On Day 2, 125 nL of serially-diluted solution of testing compounds were dispensed into 384-well white solid assay plates via ECHO acoustic liquid handler. Cells were lifted by 0.25% Trypsin (Gibco 25200) then pelleted by centrifugation (Beckman Avanti J-E) at 500×g for 5 min. Cell pellets were resuspended in TC medium at the concentration of 3e5/mL and 25 μL of cell suspension were added into each well of compound-spotted plates. The plates were returned to a 37° C. incubator overnight (18-24 hr).
(§5) On Day 3, assay plates were removed from the tissue culture incubator and 25 μL of Nano-Glo lytic detection system (Promega, cat #N3030) was added to each well. Plates were incubated at r.t. for 3 min with shaking, and luminescence was read using an Envision reader (Perkin Elmer).
(§6) To assess the IKZF1, IKZF2, and SALL4 degrader potential of exemplified compounds of this disclosure and certain Reference Compounds EC50 and Dmax values were determined for the compounds of Examples 1 to 383 and Reference Compounds A-1, B-1, B-2, B-3, B-4, and C-1 in the HiBiT assays. Asterisks (*) indicate examples for which the data shown represents an average of n≥3.

IKZF2 = IKZF2 (Homo sapiens, UniProt Q96SW2+Q9UKS7); assay: HEK293 HiBiT in vitro degradation of IKZF2; format: cell-based; design: expressed in transfected cells; settings: for DC50 / IKZF2 Dmax: HEK293 HiBiT; for DC50: 18-24 hr incubation, normalized to DMSO control, read-out: IKZF2 EC50; for IKZF2 Dmax / Dmax: maximum degradation at the highest concentration tested; for Dmax: HEK293, HEK293 HiBiT
Description: as §1, §2, §3, §4, §5, §6

T1 sequence (Q13422 whole entry): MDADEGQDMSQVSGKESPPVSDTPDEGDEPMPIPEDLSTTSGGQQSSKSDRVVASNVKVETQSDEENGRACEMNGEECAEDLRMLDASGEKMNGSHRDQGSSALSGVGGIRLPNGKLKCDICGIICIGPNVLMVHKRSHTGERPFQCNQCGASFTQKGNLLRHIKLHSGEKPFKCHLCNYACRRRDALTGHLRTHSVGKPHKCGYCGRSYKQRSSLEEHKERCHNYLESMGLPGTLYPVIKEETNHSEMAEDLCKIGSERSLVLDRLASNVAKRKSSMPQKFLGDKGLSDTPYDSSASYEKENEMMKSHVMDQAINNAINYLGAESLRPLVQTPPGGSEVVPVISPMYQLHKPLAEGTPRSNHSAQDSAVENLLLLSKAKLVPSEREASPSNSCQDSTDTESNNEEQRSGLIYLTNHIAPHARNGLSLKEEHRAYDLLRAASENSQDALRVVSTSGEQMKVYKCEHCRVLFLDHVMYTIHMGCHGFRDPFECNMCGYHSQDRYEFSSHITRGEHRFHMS
T1 sequence (Q96SW2 whole entry): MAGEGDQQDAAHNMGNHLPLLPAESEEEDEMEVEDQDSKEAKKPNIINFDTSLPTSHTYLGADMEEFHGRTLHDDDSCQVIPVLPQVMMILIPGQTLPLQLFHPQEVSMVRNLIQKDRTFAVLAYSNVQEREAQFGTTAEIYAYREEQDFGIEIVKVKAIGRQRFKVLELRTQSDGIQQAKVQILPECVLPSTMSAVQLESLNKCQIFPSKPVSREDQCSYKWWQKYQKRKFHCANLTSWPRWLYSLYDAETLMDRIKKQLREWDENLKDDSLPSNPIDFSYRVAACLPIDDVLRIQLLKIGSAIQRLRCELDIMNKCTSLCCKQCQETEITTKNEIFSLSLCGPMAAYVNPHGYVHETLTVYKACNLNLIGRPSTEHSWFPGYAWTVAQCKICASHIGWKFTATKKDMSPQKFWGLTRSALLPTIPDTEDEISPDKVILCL
T1 sequence (Q16531 whole entry partner): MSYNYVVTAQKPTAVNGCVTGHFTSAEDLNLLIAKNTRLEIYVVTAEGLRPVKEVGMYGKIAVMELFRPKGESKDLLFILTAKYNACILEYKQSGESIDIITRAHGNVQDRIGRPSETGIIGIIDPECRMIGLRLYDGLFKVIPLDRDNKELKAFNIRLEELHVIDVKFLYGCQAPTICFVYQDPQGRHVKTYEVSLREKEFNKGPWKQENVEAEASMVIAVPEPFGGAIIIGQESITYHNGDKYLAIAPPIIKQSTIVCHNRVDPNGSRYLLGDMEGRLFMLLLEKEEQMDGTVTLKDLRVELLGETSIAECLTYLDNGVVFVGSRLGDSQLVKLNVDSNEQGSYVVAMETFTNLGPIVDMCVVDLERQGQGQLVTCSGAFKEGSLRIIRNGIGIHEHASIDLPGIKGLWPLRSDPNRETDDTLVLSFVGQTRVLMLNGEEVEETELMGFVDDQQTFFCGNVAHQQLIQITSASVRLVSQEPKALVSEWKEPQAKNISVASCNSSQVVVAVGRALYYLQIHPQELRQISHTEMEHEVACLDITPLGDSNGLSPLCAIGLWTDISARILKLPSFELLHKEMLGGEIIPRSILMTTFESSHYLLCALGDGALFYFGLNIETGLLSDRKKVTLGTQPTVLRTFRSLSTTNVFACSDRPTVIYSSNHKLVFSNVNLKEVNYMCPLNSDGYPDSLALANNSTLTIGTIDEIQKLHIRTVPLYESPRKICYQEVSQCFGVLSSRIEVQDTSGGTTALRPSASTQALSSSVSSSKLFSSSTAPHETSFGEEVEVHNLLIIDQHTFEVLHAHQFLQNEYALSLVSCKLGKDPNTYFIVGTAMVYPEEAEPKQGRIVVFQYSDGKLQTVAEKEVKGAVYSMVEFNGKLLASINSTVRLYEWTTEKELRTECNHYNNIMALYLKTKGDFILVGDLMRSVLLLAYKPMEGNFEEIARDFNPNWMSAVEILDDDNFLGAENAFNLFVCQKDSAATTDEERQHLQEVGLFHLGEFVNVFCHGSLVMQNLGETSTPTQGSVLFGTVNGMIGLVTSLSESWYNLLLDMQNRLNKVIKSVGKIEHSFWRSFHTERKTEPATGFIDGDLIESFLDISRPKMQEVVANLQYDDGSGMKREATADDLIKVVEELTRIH
IKZF2, sequence (Q9UKS7 1-500 isoform Q9UKS7-2): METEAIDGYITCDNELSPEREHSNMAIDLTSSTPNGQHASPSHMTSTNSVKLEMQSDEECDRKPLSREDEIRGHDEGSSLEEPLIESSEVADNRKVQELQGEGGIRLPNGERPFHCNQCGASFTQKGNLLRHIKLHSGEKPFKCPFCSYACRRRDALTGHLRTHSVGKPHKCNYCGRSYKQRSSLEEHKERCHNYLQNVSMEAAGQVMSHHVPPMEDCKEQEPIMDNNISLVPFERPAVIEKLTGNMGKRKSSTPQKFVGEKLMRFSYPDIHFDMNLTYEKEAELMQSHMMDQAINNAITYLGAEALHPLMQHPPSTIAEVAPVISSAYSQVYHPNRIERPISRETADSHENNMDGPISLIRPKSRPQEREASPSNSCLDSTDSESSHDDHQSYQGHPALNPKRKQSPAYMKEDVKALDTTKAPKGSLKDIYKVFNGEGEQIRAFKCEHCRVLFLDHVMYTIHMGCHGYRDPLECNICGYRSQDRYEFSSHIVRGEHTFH
IKZF2, sequence (Q96SW2 whole entry): as the sequence (Q96SW2 whole entry) above
IKZF2, sequence (Q16531 whole entry partner): as the sequence (Q16531 whole entry partner) above

DC50 (IKZF1) | DC50 (IKZF2) | IKZF1 Dmax (IKZF1) | IKZF2 Dmax (IKZF2) | Dmax (IKZF2) | Dmax (IKZF1) | SMILES
100 nM | 33 nM |  |  |  |  | O=C1CCC(N2Cc3cc(C[C@H]4CCCC[C@@H]4NCc4ccccc4)ccc3C2=O)C(=O)N1 (single isomer, unassigned) [Example 120]
122 nM | 3 nM | 43% | 95% |  |  | O=C1CCC(N2Cc3c(ccc(C[C@H]4OCCC[C@@H]4NC4CCC5(CC4)CC5(F)F)c3F)C2=O)C(=O)N1 (single isomer, unassigned) [Example 365]
179 nM | 8 nM | 22% | 98% |  |  | N#CCC1CCC(N[C@H]2CCCC[C@@H]2Cc2ccc3c(c2)CN(C2CCC(=O)NC2=O)C3=O)CC1 (single isomer, unassigned) [Example 270]
> 1000 nM | 3 nM |  |  | 97% |  | O=C1CC[C@H](N2Cc3cc(C[C@H]4CCCC[C@@H]4NC4CCCCC4)ccc3C2=O)C(=O)N1 (single isomer, unassigned) [Example 336]
> 1000 nM | 5 nM |  |  | 95% |  | O=C1CC[C@@H](N2Cc3cc(C[C@H]4CCCC[C@@H]4NC4CCCCC4)ccc3C2=O)C(=O)N1 (single isomer, unassigned) [Example 337]
68 nM | 5 nM |  |  | 97% | 22% | O=C1CCC(N2Cc3cc(C[C@H]4CCCC[C@@H]4NC4CCCOCC4)ccc3C2=O)C(=O)N1 (some centres unmarked) [Example 197]
> 1000 nM | 6 nM |  |  | 98% |  | COC1CCC(NC2CCCOC2Cc2ccc3c(c2F)CN(C2CCC(=O)NC2=O)C3=O)CC1 (centres unmarked) [Example 156]
> 1000 nM | 34 nM |  | 102% |  |  | O=C1CCC(N2Cc3c(ccc(C[C@H]4OCCC[C@@H]4NC4CCc5cn[nH]c5C4)c3F)C2=O)C(=O)N1 (single isomer, unassigned) [Example 361]
> 1000 nM | 13 nM |  |  | 95% |  | CC(N[C@H]1CCCC[C@@H]1Cc1ccc2c(c1)CN(C1CCC(=O)NC1=O)C2=O)C1CCCCC1 (some centres unmarked) [Example 203]
> 1000 nM | 30 nM |  |  | 85% |  | CCOC1CN([C@H]2CCCC[C@@H]2Cc2ccc3c(c2)CN(C2CCC(=O)NC2=O)C3=O)C1 (stereo partly drawn) [Example 31, 3-(5-(((1R,2S)-2-(3-ethoxyazetidin-1-yl)cyclohexyl)methyl)-1-oxoisoindolin-2-yl)piperidine-2,6-dione]
461 nM | 62 nM | 50% | 94% |  |  | CC(N[C@H]1CCCC[C@@H]1Cc1ccc2c(c1)CN(C1CCC(=O)NC1=O)C2=O)C1CCS(=O)(=O)CC1 (single isomer, unassigned) [Example 371]
> 1000 nM | 4 nM |  |  | 96% |  | CC(N[C@H]1CCCC[C@@H]1Cc1ccc2c(c1)CN(C1CCC(=O)NC1=O)C2=O)C1CCOCC1 (some centres unmarked) [Example 200]
> 1000 nM | 86 nM |  |  | 82% |  | C[C@@H]1CCCC[C@H]1N[C@H]1CCCC[C@@H]1Cc1ccc2c(c1)CN(C1CCC(=O)NC1=O)C2=O (relative stereo) [Example 303]
78 nM | 4 nM |  |  | 97% | 30% | CC1(C)CCC(N[C@H]2CCCO[C@@H]2Cc2ccc3c(c2F)CN(C2CCC(=O)NC2=O)C3=O)C1 (single isomer, unassigned) [Example 258]
> 1000 nM | 3 nM |  | 97% |  |  | CCC(N[C@H]1CCCC[C@@H]1Cc1ccc2c(c1)CN(C1CCC(=O)NC1=O)C2=O)C1CC1 (single isomer, unassigned) [Example 233]
> 1000 nM | 49 nM |  |  | 76% |  | O=C1CCC(N2Cc3cc(C[C@H]4OCCC[C@@H]4NC4CCC(C(F)(F)F)CC4)ccc3C2=O)C(=O)N1 (single isomer, unassigned) [Example 356]
117 nM | 10 nM |  |  | 95% | 53% | CC(N[C@H]1CCCC[C@@H]1Cc1ccc2c(c1)CN(C1CCC(=O)NC1=O)C2=O)C1CCS(=O)(=O)CC1 (single isomer, unassigned) [Example 370]
> 1000 nM | 7 nM |  |  | 97% |  | CC1(C)CC(N[C@H]2CCCC[C@@H]2Cc2ccc3c(c2)CN(C2CCC(=O)NC2=O)C3=O)CC(C)(C)C1 (some centres unmarked) [Example 144]
> 1000 nM | 3 nM |  |  | 98% |  | CC(CC(C)(C)C)N[C@H]1CCCC[C@@H]1Cc1ccc2c(c1)CN(C1CCC(=O)NC1=O)C2=O (some centres unmarked) [Example 205]
124 nM | 10 nM |  |  | 94% | 50% | O=C1CCC(N2Cc3cc(C[C@H]4CCCC[C@@H]4NC4CCC(F)(F)CC4)c(F)cc3C2=O)C(=O)N1 (some centres unmarked) [Example 350]
> 1000 nM | 11 nM |  |  | 98% |  | CC(N[C@H]1CCCC[C@@H]1Cc1ccc2c(c1)CN(C1CCC(=O)NC1=O)C2=O)C1(C)CC1 (some centres unmarked) [Example 234]
125 nM | 4 nM | 37% | 98% |  |  | COC1CCC(N[C@H]2CCCC[C@@H]2Cc2ccc3c(c2)CN(C2CCC(=O)NC2=O)C3=O)CC1 (single isomer, unassigned) [Example 278]
30 nM | 1 nM |  |  | 97% | 68% | [2H]C1(N[C@H]2CCCC[C@@H]2Cc2ccc3c(c2F)CN(C2CCC(=O)NC2=O)C3=O)CCC2(CC2)CC1 (some centres unmarked) [Example 210]
> 1000 nM | 32 nM |  | 87% |  |  | CC(N[C@H]1CCCC[C@@H]1Cc1ccc2c(c1)CN(C1CCC(=O)NC1=O)C2=O)C1(C#N)CC1 (single isomer, unassigned) [Example 255]
> 1000 nM | 131 nM |  |  | 71% |  | O=C1CCC(N2Cc3cc(C[C@H]4CCCC[C@@H]4NCc4ccccn4)ccc3C2=O)C(=O)N1 (stereo partly drawn) [Example 45, 3-(1-oxo-5-(((1R,2S)-2-((pyridin-2-ylmethyl)amino)cyclohexyl)methyl)isoindolin-2-yl)piperidine-2,6-dione]
39 nM | 23 nM |  |  | 91% | 22% | O=C1CCC(N2Cc3cc(C[C@H]4CCCC[C@@H]4NCCc4ccccc4)ccc3C2=O)C(=O)N1 (stereo partly drawn) [Example 93, 3-(1-oxo-5-(((1R,2S)-2-(phenethylamino)cyclohexyl)methyl)isoindolin-2-yl)piperidine-2,6-dione]
> 1000 nM | 4 nM |  |  | 97% |  | CC(CC1CC1)N[C@H]1CCCC[C@@H]1Cc1ccc2c(c1)CN(C1CCC(=O)NC1=O)C2=O (some centres unmarked) [Example 204]
> 1000 nM | 20 nM |  |  | 95% |  | O=C1CCC(N2Cc3cc(C[C@H]4CCCC[C@@H]4NCc4cc(F)cc(F)c4)ccc3C2=O)C(=O)N1 (stereo partly drawn) [Example 15, 3-(5-(((1R,2S)-2-((3,5-difluorobenzyl)amino)cyclohexyl)methyl)-1-oxoisoindolin-2-yl)piperidine-2,6-dione]
 |  |  |  | 87% |  | [2H]c1c([2H])c([2H])c(C([2H])([2H])N[C@H]2CCCC[C@@H]2Cc2ccc3c(c2)CN(C2CCC(=O)NC2=O)C3=O)c([2H])c1[2H] (single isomer, unassigned) [Example 98]
 |  |  |  | 87% |  | [2H]c1c([2H])c([2H])c(CN[C@H]2CCCC[C@@H]2Cc2ccc3c(c2)CN(C2CCC(=O)NC2=O)C3=O)c([2H])c1[2H] (single isomer, unassigned) [Example 25]
